Tests used:
[1] = tested on: back of a hairless mouse (HR-1), 10 mass % oleic acid applied; assay: Parakeratosis-inhibiting effect tests: oleic acid applied to hairless mouse back, macroscopic rough skin evaluation and parakeratosis value; type: in vivo; conditions: for Macroscopic evaluation (average of four animals): 100 μL after oleic acid, three days, rough skin score 0.0 (no redness) to 2.0 (control); for Parakeratosis value (average of four animals): tape-stripped stratum corneum, hematoxylin, range 1.0 to 3.0, higher = parakeratosis advanced, control 2.0; for parakeratosis value / parakeratosis-inhibiting effect / rough skin preventing effect, based on stratum corneum peeling and redness: summary of Table 1, concentrations as in Table 1
Experimental: Aqueous solutions (containing 30 mass % of ethanol) of primarily 3 mass % of an α-amino acid derivative or salt thereof were prepared as the evaluation sample. The pH was regulated by hydrochloric acid or sodium hydroxide so as to be 7.0 to 7.5. When sample solubility was low, the solution was prepared accordingly.
100 μL of 10 mass % oleic acid solution (solvent: ethanol) were applied to the back of a hairless mouse (HR-1; Hoshino Laboratory Animals). Then the sample solution (α-amino acid derivative, and the like) was applied 100 μL at a time. This procedure was continued for three days. […] The status of the skin was evaluated in 0.25-point intervals, with skin where the control (control aqueous solution) had been applied being 2.0 and skin where there was no redness being 0.0. At the same time, the stratum corneum at the back of the hairless mouse was peeled off with tape, the nuclei were stained by hematoxylin, and the degree of parakeratosis was observed and evaluated by a parakeratosis value within a range of 1.0 to 3.0 (in 0.25 increments).

[2] = tested on: pores of the cheeks of healthy human males; assay: Human pore-shrinking effect (replica assessment of cheek pores); type: in vivo; conditions: for Replica assessment (average of n = 5): sample 3 mass %, twice a day for one month, pore size rating 1-13, after application minus before application, control 0.3; for pore-shrinking effect: summary of Table 2, concentrations as in Table 2
Experimental: An experiment was conducted whereby a sample was applied twice a day for one month to the cheeks of healthy human males in groups of 5 men each. Aqueous solutions (containing 15 mass % of ethanol) of 3 mass % of the α-amino acid derivative or a salt thereof were prepared as the evaluation sample. The pH was regulated by hydrochloric acid or sodium hydroxide so as to be 7.0 to 7.5. When sample solubility was low, the solution was prepared accordingly. The control was an aqueous 15% ethanol solution. The sample aqueous solution and control aqueous solution were applied to one half of the face at a time.
A replica was collected before and after continuous application, and changes in the shape of the pores at the same site were observed using a three-dimensional laser scanning microscope. The size of the pores was macroscopically evaluated in 13 steps of 1 through 13 (with the pores becoming larger as the numbers became larger), the difference in the ratings before and after application (after application-before application) was calculated, and the efficacy of each sample was studied using this difference as the replica assessment.

[3] = tested on: back of hairless mice (HR-1), 10 mass % oleic acid applied; assay: Inhibiting effect against rough skin induced by oleic acid application (transepidermal water loss); type: in vivo; parameters: ΔTEWL value: unit not given here; conditions: for ΔTEWL value: three days, average of four animals, rough skin worse as value increases, control 12.0; for ΔTEWL value compared with the control aqueous solution / rough skin preventing/ameliorating effect: summary of Table 3, concentrations as in Table 3
Experimental: In order to investigate the inhibiting effect of α-amino acid derivatives and salts thereof against rough skin induced by oleic acid application, the transepidermal water loss (TEWL value) before and after application was measured, the difference was compared with the control (control aqueous solution), and the effect was determined. Sample preparation and the application method were in accordance with Example 1. The TEWL was determined using the TM210 TEWA Meter (Courage+Khazaka Electronic GmBH).
100 μL of 10 mass % oleic acid (solvent: ethanol) was applied to the back of hairless mice (HR-1, four mice per group). Then a sample solution (α-amino acid derivatives, and the like) was applied 100 μL at a time. This procedure was continued for three days. The following day, the TEWL value of the back was determined and the values of the four animals were averaged. Rough skin became worse as the ΔTEWL value increased.

[4] = tested on: cheek of a panel of 20 women; assay: Sensory irritation tests; type: in vivo, human; conditions: for Evaluation (sensory irritation, class of average rating): sample 3 mass %, 1 mL on cheek, evaluated for ten minutes, 20 women; for sensory irritation: summary of Table 4, β-alanine at 3%
Experimental: 1 mL of a control aqueous solution and the sample aqueous solution prepared in Example 1 were applied using a cotton swab to the left or right cheek, respectively, of a panel of 20 women, the irritating sensation was evaluated every 30 seconds for ten minutes beginning immediately after application, and a final evaluation was reported. The evaluation of the irritating sensation was based on the following four steps of rating criteria, the average rating was calculated, and the average was classified by the following criteria.
3: Discontinued because of extremely strong irritation, such as stinging sensation, burning sensation, tickling sensation, itching, and the like.
2: Intolerable strong irritation, such as stinging sensation, burning sensation, tickling sensation, itching, and the like.
1: Tolerable with only slight stinging sensation, burning sensation, tickling sensation, itching, and the like.
0: Not particularly irritating.
A: average rating of less than 0.2
B: average rating of 0.2 to less than 1.0
C: average rating of 1.0 to less than 2.0
D: average rating of 2.0 or greater

| Compound | Macroscopic evaluation (average of four animals) ([1]; sample 3 mass %) | Parakeratosis value (average of four animals) ([1]; sample 3 mass %) | parakeratosis value / parakeratosis-inhibiting effect [1] | rough skin preventing effect, based on stratum corneum peeling and redness [1] | Replica assessment (average of n = 5) [2] | pore-shrinking effect [2] | ΔTEWL value ([3]; sample 3 mass %) | ΔTEWL value compared with the control aqueous solution / rough skin preventing/ameliorating effect [3] | Evaluation (sensory irritation, class of average rating) [4] | sensory irritation [4] | Macroscopic evaluation (average of four animals) ([1]; sample 1 mass %) | Parakeratosis value (average of four animals) ([1]; sample 1 mass %) | ΔTEWL value ([3]; sample 1 mass %) |
| --- | --- | --- | --- | --- | --- | --- | --- | --- | --- | --- | --- | --- | --- |
| CCN[C@@H](C)C(=O)O [N-ethyl-L-alanine] | 1.5 | 1.4 | reduced | seen | −0.4 | seen | 8.4 | significantly lower | A (average rating of less than 0.2) | no problems | – | – | – |
| C[C@@H](NC1CCCCC1)C(=O)O [N-cyclohexyl-D-alanine] | 1.3 | 1.4 | reduced | seen | −1.3 | seen | 6.9 | significantly lower | A (average rating of less than 0.2) | no problems | – | – | – |
| CC(NC1CCCCC1)C(=O)O (racemic) [N-cyclohexyl-DL-alanine] | 1.3 | 1.4 | reduced | seen | −1.4 | seen | 6.5 | significantly lower | A (average rating of less than 0.2) | no problems | – | – | – |
| O=C(N[C@H](CO)C(=O)O)OCc1ccccc1 [N-carbobenzoyloxy-D-serine] | 1.2 | 1.2 | reduced | seen | −1.3 | seen | 6.8 | significantly lower | A (average rating of less than 0.2) | no problems | – | – | – |
| O=C(NC(CO)C(=O)O)OCc1ccccc1 (racemic) [N-carbobenzoyloxy-DL-serine] | 1.2 | 1.2 | reduced | seen | −1.3 | seen | 6.7 | significantly lower | A (average rating of less than 0.2) | no problems | – | – | – |
| O=C(O)[C@H](CO)NC1CCCCC1 [N-cyclohexyl-L-serine] | 1.3 | 1.2 | reduced | seen | −1.4 | seen | 7.0 | significantly lower | A (average rating of less than 0.2) | no problems | – | – | – |
| C[C@H](NC(=O)OCc1ccccc1)C(=O)O [N-carbobenzoyloxy-L-alanine] | 1.2 | 1.3 | reduced | seen | −0.9 | seen | 6.9 | significantly lower | A (average rating of less than 0.2) | no problems | – | – | – |
| O=C(O)CNS(=O)(=O)c1ccccc1 [N-benzenesulfonyl-glycine] | 1.2 | 1.2 | reduced | seen | −1.3 | seen | 6.9 | significantly lower | A (average rating of less than 0.2) | no problems | – | – | – |
| NCCC(=O)O [β-alanine, reference compound] | – | – | – | – | – | – | – | – | D (average rating of 2.0 or greater) | strong sensory irritation | – | – | – |
| CCN[C@H](CO)C(=O)O [N-ethyl-D-serine] | 1.3 | 1.3 | reduced | seen | −1.2 | seen | 7.9 | significantly lower | A (average rating of less than 0.2) | no problems | – | – | – |
| CNC(C)C(=O)O (racemic) [N-methyl-DL-alanine] | 1.4 | 1.4 | reduced | seen | −0.9 | seen | 8.1 | significantly lower | A (average rating of less than 0.2) | no problems | – | – | – |
| CC(=O)NCC(=O)O [N-acetyl-glycine, reference compound] | 1.9 | 2.0 | not seen | – | – | – | 14.7 | not obtained | – | – | – | – | – |
| O=C(O)CNCP(=O)(O)O [Phosphonomethyl-glycine, reference compound] | – | – | not seen | – | – | – | – | not obtained | – | – | 1.9 | 2.1 | 11.4 |
| O=C(O)CNC(=O)c1ccccc1 [Hippuric acid, reference compound] | – | – | not seen | – | – | – | – | not obtained | – | – | 1.9 | 2.0 | 10.5 |
